# From patent US20080260857A1, “Substance and Method for Treating Neoplasms” (priority 2005, published 2008)
# Tested on: myeloma NS/0 cells
# Test: Myeloma NS/0 tumor in mice
# Type: in vivo, DBA/BALB(F1) mice
# Conditions: Table 3; i.p. 0.5 ml once a day for 5 days from day 3; Succinate 0.1 mg/mouse, IFN 10^5 IU/mouse, rubomicin 0.016 mg/mouse, etoposide 0.03 mg/mouse; day 21; light water 99.90%; mean ±SD (n=5)
# Protocol: Procedure. DBA/BALB(F1) mice were injected i.p. with 3×10^6 myeloma NS/0 cells to induces tumor. Myeloma NS/O-bearing mice were treated for 5 days since the third day of tumor implantation singly a day with i.p. injection of 0.5 ml saline made on the control water or 0.5 ml saline made on light water. Tumor masses and percent of mitotic cells in bone marrow were measured on day 21. Data are presented in Table 2 as tumor mass mean ±SD (n=5).
# Materials and tumor implantation procedure were as described in example 3. Interferon-alpha2b, rubomicin, and etoposide were used as typical anti-neoplasm agents.
# Myeloma NS/O-bearing mice were treated for 5 days since the third day singly a day with i.p. injection of 0.5 ml saline made on the water (control), 0.5 ml solution of 0.1 mg/mouse disodium succinate hexahydrate (Succinate) made on the control water, 0.5 ml solution of 10^5 IU/mouse interferon-alpha2b (IFN) made on the control water, 0.5 ml solution of 0.016 mg/mouse rubomicin made on the control water, 0.5 ml solution of 0.03 mg/mouse etoposide made on the control water; 0.5 ml saline made on light water, or 0.5 ml solution of 0.1 mg/mouse disodium succinate hexahydrate (Succinate) made on the light water, and 0.5 ml solution of 10^5 IU/mouse interferon-alpha2b (IFN) made on the light water, 0.5 ml solution of 0.016 mg/mouse rubomicin made on the light water, 0.5 ml solution of 0.03 mg/mouse etoposide made on the light water. Tumor masses were measured on day 21. Data are presented in Table 3 as tumor mass mean ±SD (n=5).
row,Compound,Tumor Mass [mg/mouse]
1,interferon-alpha2b [Control water + IFN],1460 ± 180
2,"COc1cc([C@@H]2c3cc4c(cc3[C@@H](O[C@@H]3O[C@@H]5CO[C@@H](C)O[C@H]5[C@H](O)[C@H]3O)[C@H]3COC(=O)[C@H]23)OCO4)cc(OC)c1O [Control water + etoposide, etoposide]",1050 ± 120
3,rubomicin [Control water + rubomicin],1270 ± 150
4,"O.O.O.O.O.O.O=C([O-])CCC(=O)[O-].[Na+].[Na+] [Control water + Succinate, disodium succinate hexahydrate]",1780 ± 220
